The target in assay [1] is human D3 dopaminergic receptor (Homo sapiens, UniProt P35462). Put plainly: Affinity for human D3 receptors stably expressed in CHO cells, [3H]-spiperone competition. The note with it: CHO cell membranes, 0.5 nM [3H]-spiperone, 1 hour at 30° C.; read-out: Affinity (pKi) hD3 (converted). Format: binding. As for the experimental part: (§1) Determination of Affinity for Human D3, D2S and D2L Receptors Stably Expressed in CHO Cells
(§2) The various cell lines are cultured to confluence and then the cells are detached and are homogenised using a Polytron in a Tris-HCl buffer (50 mM, pH 7.4) containing 5 mM MgCl2. The cell debris is then centrifuged (15 minutes at 4° C.) and the sediment is taken up in an appropriate volume of HEPES buffer (20 mM) containing 150 mM NaCl and is frozen at −80° C. On the day of the experiment, the membranes are taken up in incubation buffer containing 50 mM Tris (pH 7.4), 120 mM NaCl, 5 mM KCl, 2 mM CaCl2 and 5 mM MgCl2. […] The non-specific binding is determined using 10 μM raclopride. At the end of the incubation period, the samples are filtered through Unifilter GF/B type filters pre-treated with PEI (0.1%) and washed several times with Tris-HCl filtration buffer (50 mM, pH 7.4) containing 120 mM NaCl. The radioactivity retained on the filters is counted after addition of scintillation liquid, with the aid of a scintillation counter. […] The results are expressed in terms of pKi=−log Ki.

The target of assay [2] is human D2L dopaminergic receptor (Homo sapiens, UniProt P14416). Kind of assay: Affinity for human D2L receptors stably expressed in CHO cells, [3H]-spiperone competition. Format: binding. The note with it: CHO cell membranes, 0.5 nM [3H]-spiperone, 1 hour at 30° C.; read-out: Affinity (pKi) hD2L (converted). As for the experimental part:
as §1, §2

Assay [3] deals with human D2S dopaminergic receptor (Homo sapiens, UniProt P14416). Kind of assay: Affinity for human D2S receptors stably expressed in CHO cells, [3H]-spiperone competition. Format: binding. The note with it: CHO cell membranes, 0.5 nM [3H]-spiperone, 1 hour at 30° C.; read-out: Affinity (pKi) hD2S (converted). As for the experimental part:
as §1, §2

A further assay relates to D3/D2 receptor. Put plainly: Inhibition of hypothermia induced by the dopaminergic agonist PD128,907. Format: in vivo, rat. As to conditions: for Δ (° C.) ± S.E.M.s: PD128,907 0.63 mg/kg s.c. at T0, rectal temperature 30 min later vs baseline; for ID50 (Inhibitory Dose50): inhibition of hypothermia induced by PD128,907 0.63 mg/kg s.c. As for the experimental part: Inhibition of Induction of Hypothermia Induced by the Dopaminergic Agonist PD128,907
In male rats of the Wistar strain, the baseline (rectal) temperature is measured and then the compound under test or the vehicle is administered by the oral route. Sixty minutes later, PD128,907 (0.63 mg/kg, s.c.), a D3/D2 dopaminergic agonist, is injected. Thirty minutes later, the body temperature is re-determined and the difference (Δ) from the baseline temperature is calculated.

[4] abbreviates: male Wistar rats, compound 0.04 mg/kg p.o. at T-60 min.
The mark [5] stands for this setting: male Wistar rats, compound 0.16 mg/kg p.o. at T-60 min.
Setting [6] is: male Wistar rats, compound 0.63 mg/kg p.o. at T-60 min.
Where [7] appears, read: male Wistar rats, compound 2.5 mg/kg p.o. at T-60 min.
[8] abbreviates: male Wistar rats, compound 10.0 mg/kg p.o. at T-60 min.

Results on 3 compounds are retold here after patent US8247441B2, “Chromene compounds, a process for their preparation and pharmaceutical compositions containing them” (Les Laboratoires Servier, priority 2009, dated 2012).

The structures appear in SMILES notation.

Sequence of human D2L dopaminergic receptor (P14416 whole entry): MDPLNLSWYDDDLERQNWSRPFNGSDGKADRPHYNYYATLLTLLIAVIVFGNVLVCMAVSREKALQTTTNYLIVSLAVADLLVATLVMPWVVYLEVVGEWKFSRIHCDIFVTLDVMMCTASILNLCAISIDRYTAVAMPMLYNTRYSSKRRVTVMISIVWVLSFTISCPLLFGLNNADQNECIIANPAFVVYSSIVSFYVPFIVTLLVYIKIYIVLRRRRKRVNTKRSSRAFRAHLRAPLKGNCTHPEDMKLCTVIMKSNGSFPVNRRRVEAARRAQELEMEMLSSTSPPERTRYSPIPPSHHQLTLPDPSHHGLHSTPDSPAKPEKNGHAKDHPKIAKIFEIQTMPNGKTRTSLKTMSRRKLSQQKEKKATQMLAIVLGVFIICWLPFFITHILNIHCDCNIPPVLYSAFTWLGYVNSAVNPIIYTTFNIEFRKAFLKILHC
Sequence of human D3 dopaminergic receptor (P35462 whole entry): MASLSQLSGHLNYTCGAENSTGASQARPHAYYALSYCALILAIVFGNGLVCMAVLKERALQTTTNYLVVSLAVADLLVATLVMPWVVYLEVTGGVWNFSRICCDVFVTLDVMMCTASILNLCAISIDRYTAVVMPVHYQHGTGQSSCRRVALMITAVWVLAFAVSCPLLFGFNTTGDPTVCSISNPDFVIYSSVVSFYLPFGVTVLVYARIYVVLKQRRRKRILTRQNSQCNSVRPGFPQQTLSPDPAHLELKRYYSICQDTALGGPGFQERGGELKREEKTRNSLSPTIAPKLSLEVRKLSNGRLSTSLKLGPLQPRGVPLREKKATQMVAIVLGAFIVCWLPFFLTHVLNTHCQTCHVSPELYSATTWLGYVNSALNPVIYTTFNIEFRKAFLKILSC
Sequence of human D2S dopaminergic receptor (P14416 1-414 isoform P14416-2): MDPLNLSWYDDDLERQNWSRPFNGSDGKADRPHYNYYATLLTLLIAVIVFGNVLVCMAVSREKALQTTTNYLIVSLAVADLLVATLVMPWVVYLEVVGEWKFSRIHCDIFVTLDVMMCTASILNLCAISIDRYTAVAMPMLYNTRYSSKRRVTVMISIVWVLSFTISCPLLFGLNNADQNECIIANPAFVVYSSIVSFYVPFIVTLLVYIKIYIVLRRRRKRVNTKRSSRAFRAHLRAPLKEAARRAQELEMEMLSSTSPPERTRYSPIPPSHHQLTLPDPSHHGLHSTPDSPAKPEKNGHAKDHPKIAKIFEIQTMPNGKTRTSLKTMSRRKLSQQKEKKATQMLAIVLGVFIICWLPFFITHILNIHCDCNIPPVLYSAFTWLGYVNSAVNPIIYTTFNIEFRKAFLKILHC

On to `CC(=O)N[C@H]1CC[C@H](CCN2C[C@H]3COc4ccc(C#N)cc4[C@@H]3C2)CC1.Cl` [Example 2, N-(trans-4-{2-[(3aS,9bR)-8-cyano-1,3a,4,9b-tetrahydrochromeno[3,4-c]pyrrol-2(3H)-yl]ethyl}cyclohexyl)acetamide hydrochloride], for which the Ki is 2 nM in assay [1], 100 nM in assay [2] and 117 nM in assay [3]. The “Δ (° C.) ± S.E.M.s” value was −1.73 ± 0.26 °C in the assay on D3/D2 receptor (setting [4]); −1.33 ± 0.11 °C in the assay on D3/D2 receptor (setting [5]); −0.97 ± 0.28 °C in the assay with D3/D2 receptor (setting [6]); −0.4 ± 0.13 °C with D3/D2 receptor (setting [7]); “+0.1 ± 0.33 °C” with D3/D2 receptor (setting [8]). The “ID50 (Inhibitory Dose50)” value in the assay on D3/D2 receptor (male Wistar rats) is reported as 1.33 mg/kg, p.o.

Consider `Cl.N#Cc1ccc2c(c1)[C@@H]1CN(CC[C@H]3CC[C@H](NC(=O)C4CCC4)CC3)C[C@H]1CO2` [Example 3, N-(trans-4-{2-[(3aS,9bR)-8-cyano-1,3a,4,9b-tetrahydrochromeno[3,4-c]pyrrol-2(3H)-yl]ethyl}cyclohexyl)cyclobutanecarboxamide hydrochloride], for which the Ki in assay [1] is 1.86 nM; in assay [2], 50.1 nM; in assay [3], 56.2 nM. In the assay on D3/D2 receptor (male Wistar rats, oral route), the “Blocking of PD 128,907-induced hypothermia” value is recorded as “blocked in dose-dependent manner”. Further, the “Δ (° C.) ± S.E.M.s” value is −1.65 ± 0.09 °C in the assay on D3/D2 receptor (setting [4]); −1.62 ± 0.07 °C with D3/D2 receptor (setting [5]); −0.83 ± 0.20 °C in the assay on D3/D2 receptor (setting [6]); −0.33 ± 0.16 °C in the assay with D3/D2 receptor (setting [7]); “+0.35 ± 0.18 °C” in the assay with D3/D2 receptor (setting [8]). The “ID50 (Inhibitory Dose50)” value with D3/D2 receptor (male Wistar rats) is given as 0.64 mg/kg, p.o.

Turning to `CCCN1CCO[C@@H]2c3cc(O)ccc3OC[C@H]21` [PD128,907, reference compound], in the assay on D3/D2 receptor (in the presence of the vehicle), the “Effect of PD 128,907 on body temperature” value is on record as “brings about hypothermia”.
